From patent US8293734B2, “Nitroimidazooxazine and nitroimidazooxazole analogues and their uses” (priority 2009, dated 2012)
Converted amounts (≈) assume the structure as drawn. Where two headings read alike, the source gives them in different places.

Assays:
[1] = tested on: VERO cells (CCL-81); assay: Mammalian cell cytotoxicity assay (tetrazolium dye); format: cell-based; conditions: Chlorocebus sabaeus, read-out: IC50 VERO
Protocol: (b) Mammalian cell cytotoxicity assay. This was assessed against VERO cells (CCL-81, American Type Culture Collection) in a 72 h exposure, using a tetrazolium dye assay (Falzari et al., 2005).

[2] = tested on: Trypanosoma cruzi amastigotes (Tulahuen C2C4 strain); assay: Trypanosoma cruzi assay in infected L-6 cells; format: cell-based; conditions: L6, 96 h incubation, read-out: IC50 T. cruzi
Protocol: (§1) (c) Antiprotozoal screening. Compounds were evaluated for their activities against both Trypanosoma cruzi amastigotes and Leishmania donovani amastigotes (free or encapsulated in macrophages), according to the following protocols:
(i) Trypanosoma cruzi assay. L-6 cells (2×10^3) in medium (100 μL of RPMI 1640 supplemented with 2 mM L-glutamine plus 10% heat inactivated fetal calf serum) were seeded in 96-well microtitre plates (Costar™) and incubated at 37° C. (5% CO2) for 1d. A suspension (50 μL) of Trypanosoma cruzi trypomastigotes (5×10^3 of Tulahuen C2C4 strain, containing the β-galactosidase gene) was added, and the cells were incubated at 37° C. (5% CO2) for a further 48 h to establish the infection. The medium was removed and replaced by fresh medium and the infected cells were then incubated at 37° C. (5% CO2) for 96 h in either medium alone or in the presence of serial (3-fold) dilutions of test compounds (initially prepared as 10 mg/mL stock solutions in DMSO and diluted into medium). Benznidazole was employed as a standard in each assay. Following incubation, chlorophenol red glycoside (100 mM) in 0.1% Nonidet P40/PBS (50 μL) was added, and (after 6 h) the absorbance at 540 nm was measured and used to calculate the IC50 values.

[3] = tested on: Axenically grown L. donovani amastigotes (MHOM-ET-67/L82); assay: Axenic Leishmania donovani assay; format: cell-based; conditions: 70 h incubation, read-out: IC50 L. donovani axen
Protocol: as §1
(ii) Axenic Leishmania donovani assay. Axenically grown L. donovani amastigotes (MHOM-ET-67/L82) from a healthy culture in log phase were seeded at a density of 1×10^6/mL medium (SM, pH 5.4 plus 10% heat inactivated fetal calf serum) in 96-well microtitre plates (Costar™) and incubated at 37° C. (5% CO2) for 70 h in either medium alone or in the presence of serial (3-fold) dilutions of test compounds (initially prepared as 10 mg/mL stock solutions in DMSO and diluted into medium). Miltefosin was employed as a standard in each assay. After incubation, Resazurin fluorescent dye was added to each well, and incubation was continued for an additional 2 h. The IC50 values were determined from measurements of the fluorescence data.

[4] = tested on: L. donovani amastigotes (MHOM-ET-67/L82) in mouse macrophages; assay: Leishmania donovani infected macrophage assay; format: cell-based; conditions: 96 h incubation, read-out: IC50 L. donovani macro
Protocol: as §1
(iii) Leishmania donovani infected macrophage assay. Freshly harvested mouse macrophages in medium (RPMI 1640 plus 10% heat inactivated fetal calf serum) were incubated at 37° C. (5% CO2) for 24 h and then infected (1:3 macrophages to amastigotes) with an axenic L. donovani amastigote culture (MHOM-ET-67/L82) in medium (SM, pH 5.4 plus 10% heat inactivated fetal calf serum). The infected macrophages were seeded at a density of 1.2×10^6/mL (by diluting in RPMI+10% FCS) in 16-well slides (Lab-tek™) and incubated at 37° C. (5% CO2) for 24 h. The medium was removed and replaced by fresh medium (RPMI 1640+10% FCS), and this was repeated following mixing. The infected macrophages were then incubated at 37° C. (5% CO2) for 96 h in either medium alone or in the presence of serial (3-fold) dilutions of test compounds (initially prepared as 10 mg/mL stock solutions in DMSO and diluted into medium). Miltefosin was employed as a standard in each assay. […], the slides were fixed (5 min in 100% MeOH) and stained (10% Giemsa, 10 min). The ratio of infected to uninfected macrophages was determined by microscopic examination, and the IC50 values were then calculated by linear regression analysis.

[5] = tested on: M. tuberculosis Erdman; assay: In vivo mouse acute TB infection assay; parameters: species or system BALB/c mice; conditions: 100 mg/kg orally daily 5 days a week for 3 weeks; ratio of average lung CFU reduction to that of PA-824
[6] = tested on: replicating Mycobacterium tuberculosis; assay: MABA microplate Alamar blue assay, MIC (aerobic); format: cell-based; conditions: 192 h
[7] = tested on: M. tuberculosis bacteria in the non-replicating state; assay: LORA low-oxygen-recovery assay, MIC (anaerobic); format: cell-based; conditions: Mycobacterium tuberculosis, 264 h; 11 day luminescence-based low-oxygen-recovery assay

CC1(COCc2ccc(OC(F)(F)F)cc2)Cn2cc([N+](=O)[O-])nc2O1 (stereo not shown) [Compound 25, 2-methyl-6-nitro-2-({[4-(trifluoromethoxy)benzyl]oxy}methyl)-2,3-dihydroimidazo[2,1-b][1,3]oxazole]
IC50 ([1]; 72 h exposure): > 128 µM | IC50 [2]: 0.24 µg/mL (≈ 0.643 µM) | IC50 [3]: 0.029 µg/mL (≈ 0.0777 µM) | IC50 [4]: 0.22 µg/mL (≈ 0.589 µM) | In vivo efficacy vs PA-824 [5]: 0.025 | melting point: 110 to 111 °C

O=[N+]([O-])c1cn2c(n1)OC(COCc1cccc(OC(F)(F)F)c1)CC2 (stereo not shown) [Compound 47, 2-nitro-7-({[3-(trifluoromethoxy)benzyl]oxy}methyl)-6,7-dihydro-5H-imidazo[2,1-b][1,3]oxazine]
MIC [6]: 3.8 µM (≈ 1.42 µg/mL) | MIC [7]: 15 µM (≈ 5.6 µg/mL) | IC50 [2]: 1.1 µg/mL (≈ 2.95 µM) | IC50 [3]: 0.041 µg/mL (≈ 0.11 µM) | IC50 [4]: 0.084 µg/mL (≈ 0.225 µM) | melting point: 100 to 112 °C

O=[N+]([O-])c1cn2c(n1)OC(COCc1cccc(-c3ccc(OC(F)(F)F)cc3)c1)CC2 (stereo not shown) [Compound 50, 2-nitro-7-({[4′-(trifluoromethoxy)[1,1′-biphenyl]-3-yl]methoxy}methyl)-6,7-dihydro-5H-imidazo[2,1-b][1,3]oxazine]
MIC [6]: 0.24 µM (≈ 0.108 µg/mL) | MIC [7]: 5.1 µM (≈ 2.29 µg/mL) | IC50 ([1]; 72 h exposure): > 128 µM | IC50 [2]: 6.3 µg/mL (≈ 14 µM) | IC50 [3]: 0.041 µg/mL (≈ 0.0912 µM) | IC50 [4]: 0.15 µg/mL (≈ 0.334 µM) | melting point: 117 to 119 °C

CC1(COc2ccc(-c3ccc(C#N)cc3)cc2)Cn2cc([N+](=O)[O-])nc2O1 (stereo not shown) [Compound 9, 4′-[(2-methyl-6-nitro-2,3-dihydroimidazo[2,1-b][1,3]oxazol-2-yl)methoxy][1,1′-biphenyl]-4-carbonitrile]
MIC [6]: 0.04 µM (≈ 0.0151 µg/mL) | MIC [7]: 3.7 µM (≈ 1.39 µg/mL) | IC50 ([1]; 72 h exposure): > 128 µM | IC50 [2]: 1.2 µg/mL (≈ 3.19 µM) | IC50 [3]: 0.016 µg/mL (≈ 0.0425 µM) | IC50 [4]: 0.2 µg/mL (≈ 0.531 µM) | melting point: 180 to 181 °C

CC1(COc2ccc(-c3ccc(OC(F)(F)F)cc3)cc2)Cn2cc([N+](=O)[O-])nc2O1 (stereo not shown) [Compound 12, 2-methyl-6-nitro-2-({[4′-(trifluoromethoxy)[1,1′-biphenyl]-4-yl]oxy}methyl)-2,3-dihydroimidazo[2,1-b][1,3]oxazole]
IC50 ([1]; 72 h exposure): > 128 µM | IC50 [2]: 9.4 µg/mL (≈ 21.6 µM) | IC50 [3]: 0.016 µg/mL (≈ 0.0368 µM) | IC50 [4]: 0.74 µg/mL (≈ 1.7 µM) | In vivo efficacy vs PA-824 [5]: 112 | melting point: 209 to 211 °C

CC1(COCc2ccc(OCc3ccccc3)cc2)CCn2cc([N+](=O)[O-])nc2O1 (stereo not shown) [Compound 54, 7-({[4-(benzyloxy)benzyl]oxy}methyl)-7-methyl-2-nitro-6,7-dihydro-5H-imidazo[2,1-b][1,3]oxazine]
MIC [6]: 0.2 µM (≈ 0.0819 µg/mL) | MIC [7]: 1.4 µM (≈ 0.573 µg/mL) | IC50 ([1]; 72 h exposure): > 128 µM | IC50 [2]: 0.74 µg/mL (≈ 1.81 µM) | IC50 [3]: 0.047 µg/mL (≈ 0.115 µM) | IC50 [4]: 0.095 µg/mL (≈ 0.232 µM) | melting point: 109 to 111 °C

O=[N+]([O-])c1cn2c(n1)OCC(COCc1ccc(-c3ccc(OC(F)(F)F)cc3)cc1)C2 (stereo not shown) [Compound 75, 2-nitro-6-({[4′-(trifluoromethoxy) [1,1′-biphenyl]-4-yl]methoxy}methyl)-6,7-dihydro-5H-imidazo[2,1-b][1,3]oxazine]
MIC [6]: 0.3 µM (≈ 0.135 µg/mL) | MIC [7]: > 128 µM | IC50 ([1]; 72 h): > 128 µM | IC50 [2]: 0.47 µg/mL (≈ 1.05 µM) | IC50 [3]: 0.2 µg/mL (≈ 0.445 µM) | IC50 [4]: 0.67 µg/mL (≈ 1.49 µM) | melting point: 135 to 138 °C
